Laboratory results as given in publication PMC4422956 (EJNMMI Research, 2014).

Legend:
human DA D2L receptor [1] = molecular target: T1, human DA D2L receptor (Homo sapiens, UniProt P14416); assay: cAMP accumulation, HEK […] cells; type: cell-based; conditions: read-out: cAMP / Potency (converted)
T1 construct: gene DRD2; full-length D2L stably expressed in HEK 293 cells

human DA D2L receptor [2] = molecular target: T1, human DA D2L receptor; assay: 3H-spiperone radioligand binding, membranes; conditions: read-out: pK i D 2 -high (converted)
From the text: 3H-spiperone radioligand binding, membranes on human DA D2L receptor

T1 sequence (P14416 whole entry): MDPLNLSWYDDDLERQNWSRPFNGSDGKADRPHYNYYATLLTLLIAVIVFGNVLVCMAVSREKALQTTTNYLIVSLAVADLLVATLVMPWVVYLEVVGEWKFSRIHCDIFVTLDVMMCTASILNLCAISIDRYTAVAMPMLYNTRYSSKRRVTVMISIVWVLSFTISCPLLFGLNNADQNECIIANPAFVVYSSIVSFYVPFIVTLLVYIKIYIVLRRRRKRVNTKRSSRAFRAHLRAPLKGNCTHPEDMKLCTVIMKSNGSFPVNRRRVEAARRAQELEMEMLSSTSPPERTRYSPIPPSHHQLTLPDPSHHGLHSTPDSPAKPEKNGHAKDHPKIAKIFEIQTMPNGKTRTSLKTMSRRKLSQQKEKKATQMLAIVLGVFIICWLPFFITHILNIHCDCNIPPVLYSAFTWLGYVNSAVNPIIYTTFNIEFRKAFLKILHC

EC50 (human DA D2L receptor [1]): 0.000832 µM | Ki (human DA D2L receptor [2]): 0.102 µM
Structure (SMILES): CCN1CCC[C@H]1CNC(=O)c1c(OC)ccc(I)c1O [IBZM]
